# Read-outs that look alike come from different tables or passages of the source.
# Test: Study .4: 4-week treatment of diabetic patients, once daily, pharmacokinetic parameters
# Format: in vivo, human
# Conditions: for AUCτ,ss,norm Max / AUCτ,ss,norm Median / AUCτ,ss,norm Min / AUCτ,ss,norm gMean: Study .4, steady state, dose-normalized
# Protocol: 5. Pharmacokinetic Parameters
# The pharmacokinetic parameters of pharmaceutical compositions and pharmaceutical dosage forms are assessed in healthy volunteer and patient populations. In the studies shown below, the participants fasted on the day of sampling, unless as otherwise stated (see for example study .3). The active substance in the studies below is the compound (I.9), preferably in the crystalline form (I.9X), and the dose of active ingredient is indicated in mg.
# For the quantification of plasma concentrations of the active ingredient, 2.7 mL of blood was collected and transferred into an EDTA (ethylendiaminetetraacetic acid)-anticoagulant blood drawing tube. The EDTA-anticoagulated blood samples were centrifuged immediately after collection. Centrifugation lasted for about 10 minutes (at about 2,000×gf to 4,000×gf) at 4-8° C. or within 30 minutes while stored on ice. Concentrations of active substance in EDTA human plasma samples were quantitated using a HPLC/MS/MS method. The assay method comprised a solid phase supported liquid-liquid extraction of human plasma coupled with HPLC/MS/MS determination of the extracted samples. The HPLC/MS/MS assay was validated for the range of 1.11 to 1110 nM in human plasma.
# Study .4: 4-week treatment of a diabetic patient population of N=78, once daily administration for 4 weeks. Patients were administered tablets as described in Example 10 (section Examples of formulations).
# AUC0-inf:area under the concentration-time curve of the analyte in plasma over the time interval from 0 extrapolated to infinity.
# Cmax: maximum concentration of the analyte in plasma.
# Tmax: time from dosing to maximum concentration.
# AUCT,SS:area under the concentration-time curve of the analyte in plasma over the time interval from 0 to 24 h at steady-state.
# Cmax,ss:maximum concentration of the analyte in plasma at steady state over a uniform dosing interval.
# tmax,ss:time from dosing to maximum concentration at steady state.
# [1] = 10 mg once daily, steady state, Study .4, fasted
# [2] = 10 mg single dose, Study .4, fasted
# [3] = 25 mg once daily, steady state, Study .4, fasted
# [4] = 25 mg single dose, Study .4, fasted
structure (smiles),measurement,setting,value
"OC[C@H]1O[C@@H](c2ccc(Cl)c(Cc3ccc(O[C@H]4CCOC4)cc3)c2)[C@H](O)[C@@H](O)[C@@H]1O [Compound (I.9), 1-chloro-4-(β-D-glucopyranos-1-yl)-2-[4-((S)-tetrahydrofuran-3-yloxy)-benzyl]-benzene]","AUCτ,ss Max",[1],2.6 µM·h
same,"AUCτ,ss Min",[1],1.35 µM·h
same,"tmax,ss Max",[1],4.00 h
same,"tmax,ss Min",[1],0.983 h
same,Cmax,"10 mg once daily, steady state, Study .4, fasted, read-out: Cmax,ss Max",367 nM
same,AUC0-inf Max,[2],2.41 µM·h
same,AUC0-inf Min,[2],1.39 µM·h
same,"AUC0-inf,norm Max",[2],241 nmol·h/L/mg
same,"AUC0-inf,norm Median",[2],173 nmol·h/L/mg
same,"AUC0-inf,norm Min",[2],139 nmol·h/L/mg
same,"AUC0-inf,norm gMean",[2],172 nmol·h/L/mg
same,tmax Max,[2],2.50 h
same,tmax Min,[2],1.00 h
same,Cmax,"10 mg single dose, Study .4, fasted, read-out: Cmax Max",796 nM
same,Cmax,"10 mg single dose, Study .4, fasted, read-out: Cmax Min",205 nM
same,"AUCτ,ss Max",[3],7.64 µM·h
same,"AUCτ,ss Min",[3],2.79 µM·h
same,"tmax,ss Max",[3],3.02 h
same,"tmax,ss Min",[3],0.750 h
same,AUC0-inf Max,[4],7.17 µM·h
same,AUC0-inf Min,[4],2.84 µM·h
same,"AUC0-inf,norm Max",[4],287 nmol·h/L/mg
same,"AUC0-inf,norm Median",[4],171 nmol·h/L/mg
same,"AUC0-inf,norm Min",[4],114 nmol·h/L/mg
same,"AUC0-inf,norm gMean",[4],170 nmol·h/L/mg
same,tmax Min,[4],0.750 h
same,Cmax,"25 mg single dose, Study .4, fasted, read-out: Cmax Max",1030 nM
same,Cmax,"25 mg single dose, Study .4, fasted, read-out: Cmax Min",496 nM
same,"AUCτ,ss,norm Max","dose 10 mg, plasma",260 nmol·h/L/mg
same,"AUCτ,ss,norm Median","dose 10 mg, plasma",184 nmol·h/L/mg
same,"AUCτ,ss,norm Min","dose 10 mg, plasma",135 nmol·h/L/mg
same,"AUCτ,ss,norm gMean","dose 10 mg, plasma",185 nmol·h/L/mg
same,"AUCτ,ss,norm Max","dose 25 mg, plasma",306 nmol·h/L/mg
same,"AUCτ,ss,norm Median","dose 25 mg, plasma",179 nmol·h/L/mg
same,"AUCτ,ss,norm Min","dose 25 mg, plasma",112 nmol·h/L/mg
same,"AUCτ,ss,norm gMean","dose 25 mg, plasma",186 nmol·h/L/mg
same,AUC,"human, plasma, oral, 10 mg, 10 mg once daily, steady state, Study .4, fasted, read-out: AUCτ,ss Mean",1.87 µM·h
same,AUC,"human, plasma, oral, 10 mg, 10 mg once daily, steady state, Study .4, fasted, read-out: AUCτ,ss Median",1.84 µM·h
same,AUC,"human, plasma, oral, 10 mg, 10 mg once daily, steady state, Study .4, fasted, read-out: AUCτ,ss gMean",1.85 µM·h
same,Cmax,"human, plasma, oral, 10 mg, 10 mg once daily, steady state, Study .4, fasted, read-out: Cmax,ss Mean",259 nM
same,Cmax,"human, plasma, oral, 10 mg, 10 mg once daily, steady state, Study .4, fasted, read-out: Cmax,ss Median",251 nM
same,Cmax,"human, plasma, oral, 10 mg, 10 mg once daily, steady state, Study .4, fasted, read-out: Cmax,ss gMean",252 nM
same,Tmax,"human, plasma, oral, 10 mg, 10 mg once daily, steady state, Study .4, fasted, read-out: tmax,ss Mean",1.72 h
same,Tmax,"human, plasma, oral, 10 mg, 10 mg once daily, steady state, Study .4, fasted, read-out: tmax,ss Median",1.5 h
same,Tmax,"human, plasma, oral, 10 mg, 10 mg once daily, steady state, Study .4, fasted, read-out: tmax,ss g Mean",1.61 h
same,AUC(0-inf),"human, plasma, oral, 10 mg, 10 mg single dose, Study .4, fasted, read-out: AUC0-inf Mean",1.74 µM·h
same,AUC(0-inf),"human, plasma, oral, 10 mg, 10 mg single dose, Study .4, fasted, read-out: AUC0-inf Median",1.73 µM·h
same,AUC(0-inf),"human, plasma, oral, 10 mg, 10 mg single dose, Study .4, fasted, read-out: AUC0-inf gMean",1.72 µM·h
same,Cmax,"human, plasma, oral, 10 mg, 10 mg single dose, Study .4, fasted, read-out: Cmax Mean",309 nM
same,Cmax,"human, plasma, oral, 10 mg, 10 mg single dose, Study .4, fasted, read-out: Cmax Median",271 nM
same,Cmax,"human, plasma, oral, 10 mg, 10 mg single dose, Study .4, fasted, read-out: Cmax gMean",291 nM
same,Tmax,"human, plasma, oral, 10 mg, 10 mg single dose, Study .4, fasted, read-out: tmax Mean",1.5 h
same,Tmax,"human, plasma, oral, 10 mg, 10 mg single dose, Study .4, fasted, read-out: tmax Median",1.5 h
same,Tmax,"human, plasma, oral, 10 mg, 10 mg single dose, Study .4, fasted, read-out: tmax gMean",1.44 h
same,AUC,"human, plasma, oral, 25 mg, 25 mg once daily, steady state, Study .4, fasted, read-out: AUCτ,ss Mean",4.74 µM·h
same,AUC,"human, plasma, oral, 25 mg, 25 mg once daily, steady state, Study .4, fasted, read-out: AUCτ,ss Median",4.48 µM·h
same,AUC,"human, plasma, oral, 25 mg, 25 mg once daily, steady state, Study .4, fasted, read-out: AUCτ,ss gMean",4.64 µM·h
same,Cmax,"human, plasma, oral, 25 mg, 25 mg once daily, steady state, Study .4, fasted, read-out: Cmax,ss Mean",687 nM
same,Cmax,"human, plasma, oral, 25 mg, 25 mg once daily, steady state, Study .4, fasted, read-out: Cmax,ss Median",671 nM

# Source: patent publication US20180289678A1, “PHARMACEUTICAL COMPOSITION, PHARMACEUTICAL DOSAGE FORM, PROCESS FOR THEIR PREPARATION, METHODS FOR TREATING AND USES THEREOF” (Boehringer Ingelheim International GmbH, priority 2009, published 2018)
